# Reference: US20110171294A1, “Enzyme composition and application thereof in the treatment of pancreatic insufficiency” (DSM IP ASSETS B.V., priority 2008, published 2011)
# Non-standard residues stand in square brackets, D forms with d. Residues, ends and D or L forms follow the SMILES beside them. *: point of attachment. Sta = CC(C)C[C@H](N)[C@@H](O)CC(=O)O; Isovaleryl = CC(C)CC(=O)*
# Key:
# [1] = tested on: proline specific protease; experiment: Effect of pepstatin on the proline specific protease; assay type: biochemical, Aspergillus niger; conditions: pepstatin 1.67 microgram/ml
# Procedure: Prerequisite for a successful enzyme therapy according to the present application is an efficient degradation of dietary proteinaceous material in the stomach. […] Citrate/HCl buffers of 0.2 mol/l were used for obtaining the required acid pH conditions. […] Residual activities of the proline specific protease were measured kinetically at 405 nm using the synthetic substrates Ala-Ala-Pro-pNA (Bachem, Switzerland). […] Absorbance was measured kinetically for 10 min at 405 nm at 30° C. making use of a TECAN Genios MTP Reader (Salzburg, Vienna).
# Sodium caseinate = experiment: Casein hydrolysis under simulated stomach conditions (visual impression, di-/tripeptides, free amino acids); assay type: biochemical; conditions: 2.5 mg/ml caseinate suspension, pH 4.0, 37 degrees C., 0.25 mg/ml of each enzyme
compound,measurement,setting,value
"CC(C)CC(=O)N[C@H](C(=O)N[C@H](C(=O)N[C@@H](CC(C)C)[C@@H](O)CC(=O)N[C@@H](C)C(=O)N[C@@H](CC(C)C)[C@@H](O)CC(=O)O)C(C)C)C(C)C [pepstatin, Pepstatin] (Isovaleryl-VV[Sta]A[Sta]-OH)",inhibitory effect on the proline specific protease,[1],no inhibitory effect
"Pepsin: gastric aspartic endoprotease (EC 3.4.23.1) from porcine stomach mucosa, Sigma",Visual impression after 45″,Sodium caseinate,turbid
same,Visual impression after 90″,Sodium caseinate,clear
